What was measured:
Assay type in all cases: in vivo
Cyperus difformis = test: Test Example 3: herbicidal effect by application to foliage (Wagner pot, water depth 0.1-0.5 cm); details: Nineteenth Table; for E (herbicidal effect grade): application to foliage
How it was run: (§1)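 Plants are raised 14 days from seed in flooded-surface Wagner pots at 25–30 °C, sprayed on stems and leaves with diluted emulsion at a predetermined rate, and rated three weeks on using a 0–5 herbicidal-ratio scale (5 ≥90%).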

Leptochloa chinensis = test: as above; details: Nineteenth Table; for D (herbicidal effect grade): application to foliage
How it was run: as §1

[1] = tested on: Echinochloa crus-galli var. crus-galli; test: as above; details: Nineteenth Table; for H (herbicidal effect grade): application to foliage
How it was run: as §1

Chenopodium album = test: Test Example 4: herbicidal effect by application to foliage (diluvial soil, plastic box); details: for O: Application herbicide amount 320 g/ha
How it was run: (§2)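 Seeds sown in sterilized diluvial soil, covered ~1.5 cm, grown 14 days in greenhouse at 25° C. to 30° C. Emulsion formulation diluted in water to set rate (g/ha) and sprayed onto stems and leaves. Effect scored visually 3 weeks later on 0–5 scale (5 = ≥90% herbicidal ratio, 0 = ≤5%).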

Lolium multiflorum Lam. = test: as above; details: for K: Application herbicide amount 320 g/ha
How it was run: as §2

Veronica persica = test: as above; details: for R: Application herbicide amount 320 g/ha
How it was run: as §2

[2] = tested on: Echinochloa crus-galli var. crus-galli; test: as above; details: for H: Application herbicide amount 320 g/ha
How it was run: as §2

Apera spica-venti. = test: as above; details: for L: Application herbicide amount 320 g/ha
How it was run: as §2

Digitaria ciliaris = test: as above; details: for F: Application herbicide amount 320 g/ha
How it was run: as §2

Galium spurium = test: as above; details: for Q: Application herbicide amount 320 g/ha
How it was run: as §2

Setaria viridis = test: as above; details: for G: Application herbicide amount 320 g/ha
How it was run: as §2

Abutilon theophrasti = test: as above; details: for M: Application herbicide amount 320 g/ha
How it was run: as §2

Alopecurus myosuroides = test: as above; details: for J: Application herbicide amount 320 g/ha
How it was run: as §2

Avena fatua = test: as above; details: for I: Application herbicide amount 320 g/ha
How it was run: as §2

[3] = application herbicide amount 320 g/ha
[4] = application to foliage, application herbicide amount 320 g/ha
[5] = application herbicide amount 288 g/ha
[6] = Application herbicide amount 288 g/ha, foliage application
[7] = application herbicide amount 141 g/ha
[8] = application to foliage, 141 g/ha

Row | SMILES | E (herbicidal effect grade) (Cyperus difformis; [3]) | D (herbicidal effect grade) (Leptochloa chinensis; [3]) | H (herbicidal effect grade) [1, 3] | O (Chenopodium album) | K (Lolium multiflorum Lam.) | R (Veronica persica) | H [2] | L (Apera spica-venti.) | F (Digitaria ciliaris) | Q (Galium spurium) | G (Setaria viridis) | M (Abutilon theophrasti) | J (Alopecurus myosuroides) | I (Avena fatua) | also measured
1 | Cc1nnc(NC(=O)c2ccc(C(F)(F)F)n3c([S+]([O-])C(C)C)nnc23)o1 (stereo not drawn) [1-035] |  |  |  |  |  |  |  |  |  |  |  |  |  |  | E (Cyperus difformis) herbicidal ratio grade (Cyperus difformis; [3]): 5 (Herbicidal ratio of 90% or more (almost completely withered)); D (Leptochloa chinensis) herbicidal ratio grade (Leptochloa chinensis; [3]): 5 (Herbicidal ratio of 90% or more (almost completely withered)); H (Echinochloa crus-galli var. crus-galli) herbicidal ratio grade [1, 3]: 5 (Herbicidal ratio of 90% or more (almost completely withered)); O (Chenopodium album) herbicidal effect (Chenopodium album; [4]): 5 (Herbicidal ratio of 90% or more (almost completely withered)); K (Lolium multiflorum Lam.) herbicidal effect (Lolium multiflorum Lam.; [4]): 2 (Herbicidal ratio of 20% or more and less than 40%); R (Veronica persica) herbicidal effect (Veronica persica; [4]): 5 (Herbicidal ratio of 90% or more (almost completely withered)); H (Echinochloa crus-galli var. crus-galli) herbicidal effect [2, 4]: 5 (Herbicidal ratio of 90% or more (almost completely withered)); L (Apera spica-venti.) herbicidal effect (Apera spica-venti.; [4]): 3 (Herbicidal ratio of 40% or more and less than 70%); F (Digitaria ciliaris) herbicidal effect (Digitaria ciliaris; [4]): 5 (Herbicidal ratio of 90% or more (almost completely withered)); Q (Galium spurium) herbicidal effect (Galium spurium; [4]): 2 (Herbicidal ratio of 20% or more and less than 40%); G (Setaria viridis) herbicidal effect (Setaria viridis; [4]): 5 (Herbicidal ratio of 90% or more (almost completely withered)); M (Abutilon theophrasti) herbicidal effect (Abutilon theophrasti; [4]): 5 (Herbicidal ratio of 90% or more (almost completely withered)); J (Alopecurus myosuroides) herbicidal effect (Alopecurus myosuroides; [4]): 2 (Herbicidal ratio of 20% or more and less than 40%); I (Avena fatua) herbicidal effect (Avena fatua; [4]): 2 (Herbicidal ratio of 20% or more and less than 40%)
2 | C=CCSc1nnc2c(C(=O)Nc3nnco3)ccc(C(F)(F)F)n12 [1-128] |  |  |  |  |  |  |  |  |  |  |  |  |  |  | E (herbicidal effect grade) (Cyperus difformis; [5]): 3 (Herbicidal ratio of 40% or more and less than 70%); D (herbicidal effect grade) (Leptochloa chinensis; [5]): 3 (Herbicidal ratio of 40% or more and less than 70%); H (herbicidal effect grade) [1, 5]: 4 (Herbicidal ratio of 70% or more and less than 90%); O (Chenopodium album) herbicidal effect grade (Chenopodium album; [6]): 5 (Herbicidal ratio of 90% or more (almost completely withered)); K (Lolium multiflorum Lam.) herbicidal effect grade (Lolium multiflorum Lam.; [6]): 1 (Herbicidal ratio of 5% or more and less than 20%); R (Veronica persica) herbicidal effect grade (Veronica persica; [6]): 5 (Herbicidal ratio of 90% or more (almost completely withered)); H (Echinochloa crus-galli var. crus-galli) herbicidal effect grade [2, 6]: 5 (Herbicidal ratio of 90% or more (almost completely withered)); L (Apera spica-venti.) herbicidal effect grade (Apera spica-venti.; [6]): 1 (Herbicidal ratio of 5% or more and less than 20%); F (Digitaria ciliaris) herbicidal effect grade (Digitaria ciliaris; [6]): 5 (Herbicidal ratio of 90% or more (almost completely withered)); Q (Galium spurium) herbicidal effect grade (Galium spurium; [6]): 1 (Herbicidal ratio of 5% or more and less than 20%); G (Setaria viridis) herbicidal effect grade (Setaria viridis; [6]): 2 (Herbicidal ratio of 20% or more and less than 40%); M (Abutilon theophrasti) herbicidal effect grade (Abutilon theophrasti; [6]): 3 (Herbicidal ratio of 40% or more and less than 70%); J (Alopecurus myosuroides) herbicidal effect grade (Alopecurus myosuroides; [6]): 1 (Herbicidal ratio of 5% or more and less than 20%); I (Avena fatua) herbicidal effect grade (Avena fatua; [6]): 0 (Herbicidal ratio of 5% or less (almost no effect))
3 | Cc1nnc(NC(=O)c2ccc(C(F)(F)F)n3c(SC(C)(C)C)nnc23)o1 [1-095] | 4 (Herbicidal ratio of 70% or more and less than 90%) | 4 (Herbicidal ratio of 70% or more and less than 90%) | 4 (Herbicidal ratio of 70% or more and less than 90%) | 5 (Herbicidal ratio of 90% or more (almost completely withered)) | 2 (Herbicidal ratio of 20% or more and less than 40%) | 5 (Herbicidal ratio of 90% or more (almost completely withered)) | 5 (Herbicidal ratio of 90% or more (almost completely withered)) | 1 (Herbicidal ratio of 5% or more and less than 20%) | 5 (Herbicidal ratio of 90% or more (almost completely withered)) | 3 (Herbicidal ratio of 40% or more and less than 70%) | 3 (Herbicidal ratio of 40% or more and less than 70%) | 4 (Herbicidal ratio of 70% or more and less than 90%) | 1 (Herbicidal ratio of 5% or more and less than 20%) | 1 (Herbicidal ratio of 5% or more and less than 20%) | 
4 | Cc1nnc(NC(=O)c2ccc(C(F)(F)F)n3c(-c4cccc(Cl)n4)nnc23)o1 [1-055] | 5 (Herbicidal ratio of 90% or more (almost completely withered)) | 4 (Herbicidal ratio of 70% or more and less than 90%) | 5 (Herbicidal ratio of 90% or more (almost completely withered)) | 5 (Herbicidal ratio of 90% or more (almost completely withered)) | 2 (Herbicidal ratio of 20% or more and less than 40%) | 4 (Herbicidal ratio of 70% or more and less than 90%) | 4 (Herbicidal ratio of 70% or more and less than 90%) | 3 (Herbicidal ratio of 40% or more and less than 70%) | 4 (Herbicidal ratio of 70% or more and less than 90%) | 2 (Herbicidal ratio of 20% or more and less than 40%) | 3 (Herbicidal ratio of 40% or more and less than 70%) | 5 (Herbicidal ratio of 90% or more (almost completely withered)) | 3 (Herbicidal ratio of 40% or more and less than 70%) | 1 (Herbicidal ratio of 5% or more and less than 20%) | 
5 | Cc1nnc(NC(=O)c2ccc(C(F)(F)F)n3c(CO)nnc23)o1 [1-067] | 5 (Herbicidal ratio of 90% or more (almost completely withered)) | 5 (Herbicidal ratio of 90% or more (almost completely withered)) | 5 (Herbicidal ratio of 90% or more (almost completely withered)) | 5 (Herbicidal ratio of 90% or more (almost completely withered)) | 0 (Herbicidal ratio of 5% or less (almost no effect)) | 4 (Herbicidal ratio of 70% or more and less than 90%) | 5 (Herbicidal ratio of 90% or more (almost completely withered)) | 0 (Herbicidal ratio of 5% or less (almost no effect)) | 5 (Herbicidal ratio of 90% or more (almost completely withered)) | 3 (Herbicidal ratio of 40% or more and less than 70%) | 4 (Herbicidal ratio of 70% or more and less than 90%) | 4 (Herbicidal ratio of 70% or more and less than 90%) | 0 (Herbicidal ratio of 5% or less (almost no effect)) | 1 (Herbicidal ratio of 5% or more and less than 20%) | 
6 | CCN(C)c1nnc2c(C(=O)Nc3nnnn3C)ccc(C(F)(F)F)n12 [2-088] |  |  |  |  |  |  |  |  |  |  |  |  |  |  | E (herbicidal effect grade) (Cyperus difformis; [7]): 4 (Herbicidal ratio of 70% or more and less than 90%); D (herbicidal effect grade) (Leptochloa chinensis; [7]): 5 (Herbicidal ratio of 90% or more (almost completely withered)); H (herbicidal effect grade) [1, 7]: 5 (Herbicidal ratio of 90% or more (almost completely withered)); herbicidal effect, O (Chenopodium album) (Chenopodium album; [8]): 5 (Herbicidal ratio of 90% or more (almost completely withered)); herbicidal effect, K (Lolium multiflorum Lam.) (Lolium multiflorum Lam.; [8]): 3 (Herbicidal ratio of 40% or more and less than 70%); herbicidal effect, R (Veronica persica) (Veronica persica; [8]): 4 (Herbicidal ratio of 70% or more and less than 90%); herbicidal effect, H (Echinochloa crus-galli var. crus-galli) [2, 8]: 5 (Herbicidal ratio of 90% or more (almost completely withered)); herbicidal effect, L (Apera spica-venti.) (Apera spica-venti.; [8]): 4 (Herbicidal ratio of 70% or more and less than 90%); herbicidal effect, F (Digitaria ciliaris) (Digitaria ciliaris; [8]): 5 (Herbicidal ratio of 90% or more (almost completely withered)); herbicidal effect, Q (Galium spurium) (Galium spurium; [8]): 3 (Herbicidal ratio of 40% or more and less than 70%); herbicidal effect, G (Setaria viridis) (Setaria viridis; [8]): 5 (Herbicidal ratio of 90% or more (almost completely withered)); herbicidal effect, M (Abutilon theophrasti) (Abutilon theophrasti; [8]): 5 (Herbicidal ratio of 90% or more (almost completely withered)); herbicidal effect, J (Alopecurus myosuroides) (Alopecurus myosuroides; [8]): 3 (Herbicidal ratio of 40% or more and less than 70%); herbicidal effect, I (Avena fatua) (Avena fatua; [8]): 4 (Herbicidal ratio of 70% or more and less than 90%)

From patent US9708314B2, “Heterocyclic amide compound” (NISSAN CHEMICAL INDUSTRIES, LTD., priority 2013, dated 2017)
